Assay results as given in ChEMBL document CHEMBL5724914, “Linking interpersonal differences in gut microbiota composition and drug biotransformation activity” (2024).

Assays:
[1] = (§1) The drug is tested on Z-029 corresponding to rat gut metagenome with ENA study accession number: PRJEB37062 and ENA sample accession number: ERS12561828 for biotransformation under anaerobic condition. The drug concentrations were measured over 9 timepoints collected between 0 and 24 hours of incubation by liquid-chromatography-coupled mass spectrometry (LC–MS); settings: 2 µM
[2] = as §1, with “on Z-024” for “on Z-029”, “to pig” for “to rat”, “number: ERS12561823” for “number: ERS12561828”; settings: 2 µM
[3] = as §1, with “Z-023” for “Z-029”, “to” for “to rat gut”, “ERS12561822” for “ERS12561828”; settings: 2 µM
[4] = as §1, with “on Z-020” for “on Z-029”, “to rabbit” for “to rat”, “number: ERS12561819” for “number: ERS12561828”; settings: 2 µM
[5] = as §1, with “on Z-016” for “on Z-029”, “to mouse” for “to rat”, “number: ERS12561815” for “number: ERS12561828”; settings: 2 µM
[6] = as §1, with “on Z-013” for “on Z-029”, “to rabbit” for “to rat”, “number: ERS12561813” for “number: ERS12561828”; settings: 2 µM
[7] = as §1, with “Z-012” for “Z-029”, “to” for “to rat gut”, “ERS12561812” for “ERS12561828”; settings: 2 µM
[8] = as §1, with “on Z-009” for “on Z-029”, “to pig” for “to rat”, “number: ERS12561809” for “number: ERS12561828”; settings: 2 µM
[9] = as §1, with “Z-008” for “Z-029”, “to” for “to rat gut”, “ERS12561808” for “ERS12561828”; settings: 2 µM
[10] = as §1, with “on Z-006” for “on Z-029”, “to mouse” for “to rat”, “number: ERS12561806” for “number: ERS12561828”; settings: 2 µM
[11] = as §1, with “Z-005” for “Z-029”, “to” for “to rat gut”, “ERS12561805” for “ERS12561828”; settings: 2 µM
[12] = as §1, with “on WLS-038” for “on Z-029”, “to human” for “to rat”, “number: ERS12561745” for “number: ERS12561828”; settings: 2 µM
[13] = as §1, with “on WLS-006” for “on Z-029”, “to human” for “to rat”, “number: ERS12561741” for “number: ERS12561828”; settings: 2 µM
[14] = human gut metagenome, 24 h, 2 µM
[15] = human gut metagenome, 24 h, 2 µM; remark: listed apart in the source
[16] = human gut metagenome, 24 h, 2 µM; remark: listed apart in the source
[17] = human gut metagenome, 24 h, 2 µM; remark: listed apart in the source
[18] = human gut metagenome, 24 h, 2 µM; remark: listed apart in the source
[19] = human gut metagenome, 24 h, 2 µM; remark: listed apart in the source
[20] = human gut metagenome, 24 h, 2 µM; remark: listed apart in the source
Also: call rule not given here.

| Bacterial Biotransformation [1] | Bacterial Biotransformation [2] | Bacterial Biotransformation [3] | Bacterial Biotransformation [4] | Bacterial Biotransformation [5] | Bacterial Biotransformation [6] | Bacterial Biotransformation [7] | Bacterial Biotransformation [8] | Bacterial Biotransformation [9] | Bacterial Biotransformation [10] | Bacterial Biotransformation [11] | Bacterial Biotransformation [12] | Bacterial Biotransformation [13] | Bacterial Biotransformation [14] | Bacterial Biotransformation [15] | Bacterial Biotransformation [16] | Bacterial Biotransformation [17] | Bacterial Biotransformation [18] | Bacterial Biotransformation [19] | Bacterial Biotransformation [20] | Structure (SMILES) |
| --- | --- | --- | --- | --- | --- | --- | --- | --- | --- | --- | --- | --- | --- | --- | --- | --- | --- | --- | --- | --- |
| Compound NOT metabolized | Compound NOT metabolized | Compound NOT metabolized | Compound NOT metabolized | Compound NOT metabolized | Compound NOT metabolized | Compound NOT metabolized | Compound metabolized | Compound NOT metabolized | Compound NOT metabolized | Compound NOT metabolized | Compound NOT metabolized | Compound metabolized | Compound NOT metabolized | Compound NOT metabolized | Compound metabolized | Compound metabolized | Compound metabolized | Compound metabolized | Compound NOT metabolized | CCN1CCCC1CNC(=O)c1cc(S(N)(=O)=O)ccc1OC (stereo not given) [SULPIRIDE] |
| Compound NOT metabolized | Compound NOT metabolized | Compound NOT metabolized | Compound NOT metabolized | Compound NOT metabolized | Compound NOT metabolized | Compound NOT metabolized | Compound NOT metabolized | Compound NOT metabolized | Compound NOT metabolized | Compound NOT metabolized | Compound NOT metabolized | Compound NOT metabolized | Compound NOT metabolized | Compound NOT metabolized | Compound metabolized | Compound metabolized | Compound metabolized | Compound NOT metabolized | Compound NOT metabolized | CNS(=O)(=O)Cc1ccc2[nH]cc(CCN(C)C)c2c1.O=C(O)CCC(=O)O [SUMATRIPTAN SUCCINATE] |
| Compound NOT metabolized | Compound NOT metabolized | Compound NOT metabolized | Compound NOT metabolized | Compound NOT metabolized | Compound NOT metabolized | Compound NOT metabolized | Compound NOT metabolized | Compound NOT metabolized | Compound NOT metabolized | Compound NOT metabolized | Compound NOT metabolized | Compound NOT metabolized | Compound NOT metabolized | Compound NOT metabolized | Compound NOT metabolized | Compound metabolized | Compound metabolized | Compound metabolized | Compound NOT metabolized | Nc1c2c(nc3ccccc13)CCCC2 [TACRINE] |
| Compound NOT metabolized | Compound metabolized | Compound metabolized | Compound NOT metabolized | Compound metabolized | Compound metabolized | Compound metabolized | Compound metabolized | Compound NOT metabolized | Compound metabolized | Compound metabolized | Compound metabolized | Compound metabolized | Compound NOT metabolized | Compound metabolized | Compound metabolized | Compound metabolized | Compound metabolized | Compound metabolized | Compound NOT metabolized | Cc1ccc(S(=O)(=O)NC(=O)NN2CCCCCC2)cc1 [TOLAZAMIDE] |
| Compound NOT metabolized | Compound metabolized | Compound metabolized | Compound metabolized | Compound NOT metabolized | Compound NOT metabolized | Compound NOT metabolized | Compound metabolized | Compound NOT metabolized | Compound NOT metabolized | Compound metabolized | Compound metabolized | Compound metabolized | Compound NOT metabolized | Compound metabolized | Compound metabolized | Compound metabolized | Compound metabolized | Compound metabolized | Compound NOT metabolized | CCOC(=O)[C@H](CCc1ccccc1)N[C@@H](C)C(=O)N1[C@H](C(=O)O)C[C@H]2CCCC[C@@H]21 [TRANDOLAPRIL] |

| Structure (SMILES) | Bacterial Biotransformation [1] | Bacterial Biotransformation [2] | Bacterial Biotransformation [3] | Bacterial Biotransformation [4] | Bacterial Biotransformation [5] | Bacterial Biotransformation [6] | Bacterial Biotransformation [7] | Bacterial Biotransformation [8] | Bacterial Biotransformation [9] | Bacterial Biotransformation [10] | Bacterial Biotransformation [11] | Bacterial Biotransformation [12] | Bacterial Biotransformation [13] | Bacterial Biotransformation [14] | Bacterial Biotransformation [15] | Bacterial Biotransformation [16] | Bacterial Biotransformation [17] | Bacterial Biotransformation [18] | Bacterial Biotransformation [19] | Bacterial Biotransformation [20] |
| --- | --- | --- | --- | --- | --- | --- | --- | --- | --- | --- | --- | --- | --- | --- | --- | --- | --- | --- | --- | --- |
| CC(CN(C)C)CN1c2ccccc2CCc2ccccc21.O=C(O)/C=C\C(=O)O (stereo not given) [TRIMIPRAMINE MALEATE] | Compound NOT metabolized | Compound metabolized | Compound metabolized | Compound NOT metabolized | Compound NOT metabolized | Compound NOT metabolized | Compound metabolized | Compound NOT metabolized | Compound NOT metabolized | Compound NOT metabolized | Compound NOT metabolized | Compound NOT metabolized | Compound metabolized | Compound NOT metabolized | Compound NOT metabolized | Compound metabolized | Compound metabolized | Compound metabolized | Compound metabolized | Compound metabolized |
| CC(=O)CC(c1ccccc1)c1c(O)c2ccccc2oc1=O (stereo not given) [WARFARIN] | Compound NOT metabolized | Compound metabolized | Compound metabolized | Compound metabolized | Compound metabolized | Compound metabolized | Compound metabolized | Compound metabolized | Compound NOT metabolized | Compound metabolized | Compound NOT metabolized | Compound NOT metabolized | Compound metabolized | Compound metabolized | Compound metabolized | Compound metabolized | Compound metabolized | Compound metabolized | Compound metabolized | Compound metabolized |
